{
  "source": "patent US20040236110A1",
  "about": "“Substituted 3-pyridyl indoles and indazoles as c17,20 lyase inhibitors” (priority 2001, published 2004)",
  "data": [
    {"molecule": "N#Cc1ccccc1-n1ccc2cc(-c3cccnc3)ccc21", "note": "[Example 58, 1-(2-Cyanophenyl)-5-(3-pyridyl)-1H-indole]", "values": [
      {"measurement": "melting point", "result": "138 to 141", "unit": "°C"}
    ]}
  ]
}
